In the assay the test system is tumors. The assay can be described thus: DMBA-induced tumor growth in rats. The note with it: female rats with DMBA-induced tumors; control = saline solution; result in words.

On to “Peptide 1-19: peptide 1-19 of HMG-I, commercially available from Santa Cruz Biotechnology, Santa Cruz, CA, USA (MSESSSKSSQPLASKQEKD; UniProt P17096 1-19, looked up, fragment)”, for which the “tumor growth in comparison to the control” value is reported as “clearly slow down the tumor growth”.

For the origin of these results see patent EP1079849B1, “USE OF HMG PROTEINS FOR THE PREPARATION OF MEDICAMENTS HAVING CYTOTOXIC ACTIVITY” (Istituto Di Ricerche " Giorgio Sisini", priority 1998, dated 2002).
